Test results: patent US7638554B2, “Flavanoids as chemotherapeutic, chemopreventive, and antiangiogenic agents” (SRI International, priority 2002, dated 2009)
Like-named read-outs stand apart in the source and are kept apart here.

Legend:
human TIMP-2 mRNA = test: Northern blot analysis of TIMP-2 mRNA, MCF10CA1a cells; type: cell-based; details: 0.5, 1, 3, or 5 μM
Description: Northern blotting. Ten μg of total RNA was electrophoresed in 1% agarose gel containing 6% formaldehyde, transferred to nylon membrane (Amersham Hybond N) by capillary blotting and fixed to the filter by exposure to UV. The blot was probed with a 600 bp ^32P-labeled cDNA sequence of human TIMP-2. Hybridizations were carried out at 42° C. in 50% formamide, 5×SSC, 5×Denhardt's solution, 0.1% SDS, and 0.3 mg/ml salmon sperm DNA. Filters were exposed to X-ray film (Kodak XAR-2) at −80° C. using an intensifying screen (Coronex Hi-Plus).
The effect of SR13179 on the extracellular levels of TIMP-2 as well as MMP-2 was also investigated. Treatment of MCF-10CA1a cells with SR13179 at 5 μM concentration caused 5- to 8-fold increase in the secreted level of TIMP-2 and a 2-fold decrease in the extracellular level of MMP-2. However, extracellular TIMP-2 protein was always associated with MMP-2 protein, even after the samples were boiled for 10 min and separated under the denaturing conditions of gel electrophoresis.

[1] = tested on: prostate cancer cell line DU145; test: Growth inhibition, sulforhodamine-based protein determination, DU145; type: cell-based; details: Homo sapiens, DU-145, 144 h; continuous exposure six days
Description: (§1) The novel compound SR 13179 was assayed for its ability to inhibit growth in several cancer cell lines. The cell lines studied included breast cancer cell line MCF-7 (ER+); prostate cancer cell lines LNCaP, PC3, and DU145; lung cancer cell line A427; ovarian cancer cell lines IGROV1, OVCAR-3, OVCAR-4, OVCAR-5, OVCAR-8, and SK-OV-3; and colon cancer cell lines COLO 205, HCC-2998, HCT-116, HCT-15, HT29, KM12, AND SW-620.
(§2) The growth assays for the breast cancer cell lines were conducted according to the method of Example 16. For the other cell lines, each assay was conducted with continuous exposure to the test compound at four log concentrations for six days, using a sulforhodamine-based protein determination to measure growth inhibition.

[2] = tested on: human umbilical vein endothelial cells (HUVECs); test: Growth inhibition of HUVECs, MTT assay; type: cell-based; details: HUVEC, read-out: concentration to inhibit growth by 50%, HUVECs
Description: Angiogenesis depends upon the proliferation of vascular endothelial cells. To determine the potential antiangiogenic activity of SR 13179, the compound's ability to inhibit the proliferation of these cells was assayed. Apoptosis was then investigated as a possible mechanism for the antiproliferative activity.
Human vascular endothelial cells taken from umbilical veins (HUVECs) were obtained from Clonetics Corporation (San Diego, Calif.). Growth inhibition was measured quantitatively using the MTT assay as described by Mosmann et al., cited in the previous example.
The concentration to inhibit growth by 50% was 0.37 μM.

[3] = tested on: ovarian cancer cell line OVCAR-3; test: Growth inhibition, sulforhodamine-based protein determination, OVCAR-3; type: cell-based; details: Homo sapiens, OVCAR-3, 144 h; continuous exposure six days
Description: as §1, §2

MMP-2 = test: Western blotting of cell-associated MMP-2 protein, MCF-10-CA1a cells; type: cell-based, human; details: 1, 3, or 5 μM, 48 h
Description: (§3) Western Blotting. Proteins were separated by gel electrophoresis using 4-12% pre-cast SDS-polyacrylamide gels (Invitrogen, Carlsbad, Calif.) and then electrophoretically transferred onto Hybond™-P membrane (Amersham Biosciences, Piscataway, N.J.). Blots were probed with specific antibodies (Santa Cruz Biotechnology, Inc). The ECL Plus Western Blotting Detection System of Amersham Biosciences (Piscataway, N.J.) and the procedure recommended by the manufacturer was used for the detection of antigens. Protein bands were quantified by analyzing the images obtained using an Alphaimager™ S-3400 (Alpha Innotech Corp., San Leandro, Calif.).
The effect of SR 13179 on cell-associated MMP-2 and MMP-9 protein levels was studied. MCF-10-CA1a cells were treated with SR 13179 at 1, 3, or 5 μM concentrations for 48 h. Untreated cells were used as control. Proteins were separated by SDS-Polyacrylamide gel electrophoresis and electrophoretically transformed onto Hybond™ P membrane (Amerhsam Biosciences). Blots were probed with specific antibodies (Santa Cruz Biotechnology Inc.).

p38 MAPK = molecular target: T1, p38 MAPK (Homo sapiens, UniProt Q16539); test: Inhibition of p38 MAPK in MCF-7 cells; type: cell-based; details: MCF-7 human breast cancer cell line
T1 construct: endogenous in cells; host or cells: MCF-7 human breast cancer cells
T1 sequence (Q16539 whole entry): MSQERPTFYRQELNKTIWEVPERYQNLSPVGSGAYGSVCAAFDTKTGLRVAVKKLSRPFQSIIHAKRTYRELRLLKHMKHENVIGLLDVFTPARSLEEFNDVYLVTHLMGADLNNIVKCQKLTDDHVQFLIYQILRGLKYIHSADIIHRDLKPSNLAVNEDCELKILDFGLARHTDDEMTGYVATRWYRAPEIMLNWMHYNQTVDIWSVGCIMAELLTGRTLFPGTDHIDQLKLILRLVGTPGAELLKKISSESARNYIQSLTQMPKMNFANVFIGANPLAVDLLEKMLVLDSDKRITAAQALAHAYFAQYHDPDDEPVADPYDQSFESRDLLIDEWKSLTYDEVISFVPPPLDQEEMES

[4] = tested on: chick chorioallantoic membrane (CAM) blood vessels; test: Chick chorioallantoic membrane (CAM) assay for antiangiogenic activity; type: in vivo
Description: The CAM assay, which is widely applied to evaluate in vivo antiangiogenic activity, was utilized with SR 13179.
The methods used were those of Folkman (Auerbach et al. (1974) Dev. Biol. 41:391-394), with some modifications. The test compound was dissolved in saline and methylcellulose, and the embryos dosed once daily for 12-14 days. Blood vessel density of each embryo was measured as the quantitative endpoint. The known antiangiogenic compound medroxyprogesterone acetate (MPA) was used as a positive control.

[5] = tested on: prostate cancer cell line LNCaP; test: Growth inhibition, sulforhodamine-based protein determination, LNCaP; type: cell-based; details: Homo sapiens
Description: as §1, §2
The procedure of Example 20 was used to evaluate the growth inhibitory effect of various compounds of the invention on LNCaP cells.

[6] = tested on: colon cancer cell line HCT-15; test: Growth inhibition, sulforhodamine-based protein determination, HCT-15; type: cell-based; details: Homo sapiens, HCT-15, 144 h; continuous exposure six days
Description: as §1, §2

[7] = tested on: MCF-7 human breast carcinoma cells; test: Cell cycle analysis in MCF-7 cells; type: cell-based; details: 1 μM, 24 h
[8] = tested on: membrane-type 1 MMP (MT1-MMP); test: MT1-MMP protein expression, MCF-10-CA1a cells; type: cell-based, human
Description: as §3
The effects of SR 13179 on the protein expression of TIMP-1, TIMP-2, and membrane-type 1 MMP (MT1-MMP) were studied. SR13179 induced the protein expression of TIMP-2 in a dose- and time-dependent manner. MCF-10-CA1a cells were treated with SR 13179 at 1, 3, or 5 μM concentrations for 48 h, or, alternatively, with […] SR 13179 for 8, 24, or 48 h. Cells were lysed and subjected to Western blotting.
The effect of SR13179 on the extracellular levels of TIMP-2 as well as MMP-2 was also investigated. Treatment of MCF-10CA1a cells with SR13179 at 5 μM concentration caused 5- to 8-fold increase in the secreted level of TIMP-2 and a 2-fold decrease in the extracellular level of MMP-2. […]

[9] = 11.1 μg/CAM, once daily for 12-14 days

Compound: COc1cc(C2CC(O)c3ccc4ccccc4c3O2)cc(OC)c1OC (centres unmarked) [SR 13179, 2-(3,4,5-trimethoxyphenyl)-3,4-dihydro-2H-benzo[h]chromen-4-ol]
- TIMP-2 mRNA (human TIMP-2 mRNA): dose-dependent induction
- IC50 [1]: 638 nM
- IC50 [2]: 370 nM
- IC50 [3]: 180 nM
- cell-associated MMP-2 protein levels (MMP-2): does not affect
- p38 MAPK (p38 MAPK): inhibited
- Blood vessel density score [4, 9]: 4.6 ± 2.2
- Percent inhibition relative to control [4, 9]: 57%
- in vivo antiangiogenic activity compared with MPA ([4]; CAM assay): equivalent to that of MPA
- IC50 ([5]; 144 h, continuous exposure six days, read-out: IC50, growth inhibition, LNCaP): 210 nM
- IC50 ([5]; Table 5, read-out: Growth Inhibition (IC50), LNCaP cells): 210 nM
- IC50 [6]: 270 nM
- hypodiploid (sub G1) fraction compared with untreated control [7]: nearly three-fold increase
- MT1-MMP protein levels [8]: no significant effect
